Data: patent US12428415B2, “Matriptase 2 inhibitors and uses thereof” (Disc Medicine, Inc., priority 2018, dated 2025)

target: T1, Human Recombinant Matriptase 2 (Homo sapiens, UniProt Q8IU80); test: Matriptase 2 fluorescence based inhibition assay, Method B (50 mM TRIS pH 7.5, 150 mM NaCl, 0.01% gelatin); format: biochemical; conditions: 1 uM compound; Assay Used = B (Method B)
T1 construct: purchased Enzo Life Sciences (an in-house preparation was also used) ALX-201-752-1
T1 sequence (Q8IU80 1-811): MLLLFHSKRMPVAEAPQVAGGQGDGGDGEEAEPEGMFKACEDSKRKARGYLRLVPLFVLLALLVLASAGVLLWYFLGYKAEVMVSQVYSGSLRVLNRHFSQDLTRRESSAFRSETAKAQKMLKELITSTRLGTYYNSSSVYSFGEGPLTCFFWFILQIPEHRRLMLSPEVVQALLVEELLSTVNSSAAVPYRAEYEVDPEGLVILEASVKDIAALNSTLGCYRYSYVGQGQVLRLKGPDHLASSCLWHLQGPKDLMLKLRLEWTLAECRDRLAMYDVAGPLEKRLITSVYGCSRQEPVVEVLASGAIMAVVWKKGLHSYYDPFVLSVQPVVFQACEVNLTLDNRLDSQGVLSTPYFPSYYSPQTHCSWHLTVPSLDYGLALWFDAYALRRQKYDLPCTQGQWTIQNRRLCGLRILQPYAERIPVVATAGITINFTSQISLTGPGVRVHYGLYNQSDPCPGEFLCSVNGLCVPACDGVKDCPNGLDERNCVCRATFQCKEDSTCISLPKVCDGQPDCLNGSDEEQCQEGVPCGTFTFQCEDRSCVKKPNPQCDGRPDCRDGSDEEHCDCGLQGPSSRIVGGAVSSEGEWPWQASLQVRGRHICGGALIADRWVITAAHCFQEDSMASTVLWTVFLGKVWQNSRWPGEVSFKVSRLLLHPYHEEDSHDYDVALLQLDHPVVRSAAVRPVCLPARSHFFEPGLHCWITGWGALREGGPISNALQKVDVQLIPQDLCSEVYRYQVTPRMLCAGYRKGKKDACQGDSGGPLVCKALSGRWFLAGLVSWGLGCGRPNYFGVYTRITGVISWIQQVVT
How it was run: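 Fluorogenic substrate Boc-Gln-Ala-Arg-7-amido-4-methylcoumarin (100 μM) cleavage read at Ex 360/Em 480 nm 60 min after addition, following 30 min enzyme–compound preincubation at 25° C. Enzyme was 7 nM commercial or 15 nM in-house; DMSO 1%. IC50s fitted by non-linear sigmoidal regression.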

| Structure (SMILES) | Mar-2 % inhibition at 1 uM |
| --- | --- |
| N=C(N)c1ccc2c(CO)c(C(=O)N[C@H]3CC[C@H](N)CC3)n(Cc3cccc4ccccc34)c2c1 [Compound I-619] | A (A represents 0%≤I≤25%) |
| N=C(N)c1ccc2cc(NC(=O)[C@H]3CC[C@H](N)CC3)n(Cc3cccc4ccccc34)c2c1 [Compound I-671] | C (C represents 50%≤I≤75%) |

same assay, conditions: 1 uM compound; Assay Used = B (Method B); read-out: Mar-2 % inhibition at 1 uM

| Structure (SMILES) | inhibition at 1 µM [%] |
| --- | --- |
| N=C(N)c1ccc2cc(C(=O)O)n(Cc3cc(Oc4cccnc4)cc4ccccc34)c2c1 [Compound I-626] | 25 to 50 |
| N=C(N)c1ccc2cc(C(=O)OCCNC(N)=O)n(Cc3cccc4ccccc34)c2c1 [Compound I-597] | 75 to 100 |
| N=C(N)c1ccc2cc(C(=O)O)n(Cc3cc(Nc4ccccc4)cc4ccccc34)c2c1 [Compound I-656] | 50 to 75 |
| N=C(N)c1ccc2cc(C(=O)N[C@H]3CC[C@H](NC=O)CC3)n(Cc3cccc4ccccc34)c2c1 [Compound I-729] | 50 to 75 |
| N=C(N)c1ccc2cc(C(=O)N[C@H]3CC[C@H](N)CC3)n(Cc3csc4ccccc34)c2c1 [Compound I-756] | 75 to 100 |
| N=C(N)c1ccc2cc(C(=O)O)n(Cc3csc4ccccc34)c2n1 [Compound I-724] | 50 to 75 |
| CC1(O)CCC(OC(=O)c2cc3ccc(C(=N)N)cc3n2Cc2cc(Oc3ccccc3)cc3ccccc23)CC1 (stereo not drawn) [Compound I-617] | 0 to 25 |
| CN1CC[C@H](COC(=O)c2cc3ccc(C(=N)N)cc3n2Cc2cccc3ccccc23)c2ccccc21 [Compound I-779] | 25 to 50 |
| COC(=O)N[C@H]1CC[C@H](NC(=O)c2cc3ccc(C(=N)N)cc3n2Cc2cccc3ccccc23)CC1 [Compound I-735] | 25 to 50 |
| CO/N=C(\N)c1ccc2cc(C(=O)OC)n(Cc3cccc4ccccc34)c2n1 [Compound I-697, Methyl (Z)-6-(N′-methoxycarbamimidoyl)-1-(naphthalen-1-ylmethyl)-1H-pyrrolo[2,3-b]pyridine-2-carboxylate] | 0 to 25 |
| COc1ccccc1Oc1cc(Cn2c(C(=O)O)cc3ccc(C(=N)N)cc32)c2ccccc2c1 [Compound I-709] | 25 to 50 |
| N=C(N)c1ccc2cc(C(=O)O)n(Cc3cc(Oc4ncccn4)cc4ccccc34)c2c1 [Compound I-693] | 75 to 100 |
| Cn1c(C(=O)O)c(Cc2cc(Oc3ccccc3)cc3ccccc23)c2cc(C(=N)N)ccc21 [Compound I-606] | 25 to 50 |
| CCCCCCOC(=O)NC(=N)c1ccc2cc(C(=O)O)n(Cc3cccc4ccccc34)c2c1 [Compound I-720, Potassium 6-(N-((hexyloxy)carbonyl)carbamimidoyl)-1-(naphthalen-1-ylmethyl)-1H-indole-2-carboxylate] | 0 to 25 |
| N=C(N)c1ccc2cc(CC(=O)O)n(Cc3cccc4ccccc34)c2c1 [Compound I-716, 2-(6-carbamimidoyl-1-(naphthalen-1-ylmethyl)-1H-indol-2-yl)acetic Acid] | 75 to 100 |
| N=C(N)c1ccc2cc(C(=O)N[C@H]3CC[C@H](N)CC3)n(Cc3cc(N4CCOCC4=O)cc4ccccc34)c2c1 [Compound I-702] | 25 to 50 |
| COC(=O)c1cc2ccc(C(=N)N)cc2n1Cc1csc2ccccc12 [Compound I-708] | 25 to 50 |
| N=C(N)c1ccc2cc(C(=O)NCc3ccncc3)n(Cc3cccc4ccccc34)c2c1 [Compound I-758] | 50 to 75 |
| Cc1c(C(=O)O)n(Cc2cccc3ccccc23)c2cc(C(=N)N)ccc12 [Compound I-638, 6-carbamimidoyl-3-methyl-1-(naphthalen-1-ylmethyl)-1H-indole-2-carboxylic Acid] | 50 to 75 |
| N=C(N)c1ccc2cc(C(=O)N[C@H]3CC[C@H](N)CC3)n(C[C@H]3CCCc4ccccc43)c2c1 (racemic) [Compound I-612] | 25 to 50 |

same assay, conditions: 1 uM compound; Assay Used = B; read-out: Mar-2 % inhibition at 1 uM

| Structure (SMILES) | inhibition at 1 µM [%] |
| --- | --- |
| N=C(N)c1ccc2cc(C(=O)N[C@H]3CC[C@H](C(=O)O)CC3)n(Cc3cccc4ccccc34)c2c1 [Compound I-473] | 25 to 50 |
| N=C(N)c1ccc2cc(C(=O)NC3CCCC(N)C3)n(Cc3cccc4ccccc34)c2c1 (stereo not drawn) [Compound I-467] | 75 to 100 |
| N=C(N)c1ccc2cc(C(=O)O)n(Cc3ccc4ccccc4c3)c2c1 [Compound I-459] | 25 to 50 |
| NCc1ccc2cc(C(=O)NC3CCCC(N)C3)n(Cc3cccc4ccccc34)c2c1 (stereo not drawn) [Compound I-540] | 25 to 50 |
| CC(C)(C)OC(=O)NC(=N)c1ccc2cc(C(=O)N3CC[C@H](O)C3)n(Cc3cccc4ccccc34)c2c1 (stereo in doubt) [Compound I-424] | 0 to 25 |
| N=C(N)c1ccc2cc(C(=O)N[C@H]3CC[C@H](N)CC3)n(Cc3ccc(C(N)=O)cc3)c2c1 [Compound I-500] | 25 to 50 |
| CN1CCC(CNC(=O)c2cc3ccc(C(=N)N)cc3n2Cc2cc(Oc3ncccn3)cc3ccccc23)CC1 [Compound I-590] | 75 to 100 |
| N=C(N)c1ccc2cc(C(=O)N[C@H]3CC[C@H](N)CC3)n(CCc3ccc4ccccc4c3)c2c1 [Compound I-410] | 25 to 50 |
| CCOC(=O)N1CCC(NC(=O)c2cc3ccc(C(=N)NC(=O)OC(C)(C)C)cc3n2Cc2cccc3ccccc23)CC1 [Compound I-420] | 0 to 25 |
| CC(C)COC(=O)NC(=N)c1ccc2cc(C(=O)OCc3ccccc3)n(Cc3cc(Oc4ncccn4)cc4ccccc34)c2c1 [Compound I-581] | 25 to 50 |
| NCc1ccc2cc(C(=O)N[C@H]3CC[C@H](N)CC3)n(Cc3cccc4ccccc34)c2c1 [Compound I-531, N-((1r,4r)-4-aminocyclohexyl)-6-(aminomethyl)-1-(naphthalen-1-ylmethyl)-1H-indole-2-carboxamide] | 50 to 75 |
| CC(N)c1ccc2cc(C(=O)N[C@H]3CC[C@H](N)CC3)n(Cc3cccc4ccccc34)c2c1 (stereo partly drawn) [Compound I-580, N-((1r,4r)-4-aminocyclohexyl)-6-(1-aminoethyl)-1-(naphthalen-1-ylmethyl)-1H-indole-2-carboxamide] | 0 to 25 |
| N=C(N)c1ccc2cc(C(=O)N3CCC(CN)CC3)n(Cc3cccc4ccccc34)c2c1 [Compound I-429] | 50 to 75 |
| N=C(N)c1ccc2cc(C(=O)NCC3CCNCC3)n(-c3ccc4ccccc4c3)c2c1 [Compound I-490, 6-carbamimidoyl-1-(naphthalen-2-yl)-N-(piperidin-4-ylmethyl)-1H-indole-2-carboxamide] | 50 to 75 |
| N=C(N)c1ccc2cc(C(=O)N[C@H]3CC[C@H](N)CC3)n(Cc3ccccc3-c3ccccc3)c2c1 [Compound I-510] | 0 to 25 |
| N=C(N)c1ccc2cc(-c3nnc([C@H]4CC[C@H](N)CC4)o3)n(Cc3cccc4ccccc34)c2c1 [Compound I-525, 2-(5-((1r,4r)-4-aminocyclohexyl)-1,3,4-oxadiazol-2-yl)-1-(naphthalen-1-ylmethyl)-1H-indole-6-carboximidamide] | 75 to 100 |
| N=C(N)c1ccc2cc(C(=O)N(CCO)C3CCC(N)CC3)n(Cc3cccc4ccccc34)c2c1 (stereo not drawn) [Compound I-453] | 50 to 75 |
| N=C(N)c1ccc2cc(C(=O)NCc3ccc(CO)cc3)n(Cc3cccc4ccccc34)c2c1 [Compound I-435] | 50 to 75 |
| N=C(N)c1ccc2cc(C(=O)O)n(Cc3cc(Oc4ncc(F)cn4)cc4ccccc34)c2c1 [Compound I-571] | 50 to 75 |
| N=C(N)c1ccc2cc(C(=O)NC3CCCNC3)n(Cc3cccc4ccccc34)c2c1 (stereo not drawn) [Compound I-445] | 75 to 100 |
| N=C(N)c1ccc2cc(S(=O)(=O)N[C@H]3CC[C@H](N)CC3)n(Cc3cccc4ccccc34)c2c1 [Compound I-522, 2-(N-((1r,4r)-4-aminocyclohexyl)sulfamoyl)-1-(naphthalen-1-ylmethyl)-1H-indole-6-carboximidamide] | 50 to 75 |

same assay, conditions: compound at 1 uM; Assay Used: B; read-out: Mar-2 % inhibition at 1 uM

| Structure (SMILES) | inhibition at 1 µM [%] |
| --- | --- |
| N=C(N)c1ccc2cc(C(=O)O)n(Cc3cccc4cc(O)ccc34)c2c1 [Compound I-821] | 75 to 100 |
| N=C(N)c1ccc2cc(C(=O)NCCc3c[nH]c4ccc(O)cc34)n(Cc3cc(Oc4ncccn4)cc4ccccc34)c2c1 [Compound I-826] | 25 to 50 |
| COc1ccc2ccccc2c1Cn1c(C(=O)N[C@H]2CC[C@H](N)CC2)cc2ccc(C(=N)N)cc21 [Compound I-799] | 0 to 25 |
| CCOC(=O)c1cc(Cn2c(C(=O)N[C@H]3CC[C@H](N)CC3)cc3ccc(C(=N)N)cc32)c2ccccc2c1 [Compound I-812] | 75 to 100 |
| CNCCCOc1ccc2c(Cn3c(C(=O)O)cc4ccc(C(=N)N)cc43)cccc2c1 [Compound I-801, 6-carbamimidoyl-1-((6-(3-(methylamino)propoxy)naphthalen-1-yl)methyl)-1H-indole-2-carboxylic Acid] | 50 to 75 |
